Where two headings read alike, the source gives them in different places.
Target: T1, SIRT1 (Homo sapiens, UniProt Q96EB6)
T1 sequence (Q96EB6 1-747): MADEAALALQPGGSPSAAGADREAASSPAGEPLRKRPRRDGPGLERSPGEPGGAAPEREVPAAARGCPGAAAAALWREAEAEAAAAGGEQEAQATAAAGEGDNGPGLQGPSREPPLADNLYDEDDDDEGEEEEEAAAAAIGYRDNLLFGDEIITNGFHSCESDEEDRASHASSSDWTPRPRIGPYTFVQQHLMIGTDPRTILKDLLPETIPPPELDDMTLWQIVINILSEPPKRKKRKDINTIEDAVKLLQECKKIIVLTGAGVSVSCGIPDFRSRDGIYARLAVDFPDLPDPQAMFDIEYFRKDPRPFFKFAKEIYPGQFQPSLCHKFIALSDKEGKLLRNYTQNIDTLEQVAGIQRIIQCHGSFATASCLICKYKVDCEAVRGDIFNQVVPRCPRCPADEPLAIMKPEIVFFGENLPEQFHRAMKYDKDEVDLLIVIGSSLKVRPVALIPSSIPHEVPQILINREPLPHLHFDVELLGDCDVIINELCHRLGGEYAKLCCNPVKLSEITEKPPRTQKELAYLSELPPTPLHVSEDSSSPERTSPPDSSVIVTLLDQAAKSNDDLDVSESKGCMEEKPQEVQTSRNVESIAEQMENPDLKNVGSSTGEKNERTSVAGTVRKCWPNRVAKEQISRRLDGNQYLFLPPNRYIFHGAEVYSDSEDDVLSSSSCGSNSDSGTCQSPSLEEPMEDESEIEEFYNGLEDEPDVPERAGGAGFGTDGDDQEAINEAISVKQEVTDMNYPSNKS
Assay: TAMRA based mass spectrometry assay of SIRT1 activity
Format: biochemical
Details: for Emax: read-out: TAMRA % Fold Act
Summary of the method: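 Recombinant N-terminal His-tagged human SIRT1 (10 nM, E. coli) incubated 25 min at 25 °C with 0.5 μM 5TMR-labelled p53-derived acetyl-peptide and 120 μM βNAD+ in Tris-acetate pH 8 buffer with DTT and 0.05% BSA, compound at varying concentrations. Stopped with formic acid; deacetylated peptide or OAADPR measured by mass spectrometry relative to DMSO controls.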

[1] = TAMRA assay, concentration giving 150% activation of SIRT1
[2] = TAMRA assay, percent maximum fold activation
[3] = concentration of test compound giving 150% activation of SIRT1, TAMRA peptide substrate
[4] = percent maximum fold activation of SIRT1, TAMRA peptide substrate
[5] = TAMRA peptide substrate, concentration giving 150% activation of SIRT1
[6] = TAMRA peptide substrate, percent maximum fold activation

| TAMRA EC1.5 (μM) [1] | Emax [2] | TAMRA EC1.5 [5] | Emax [6] | SMILES | other results |
| --- | --- | --- | --- | --- | --- |
| A (EC1.5<1 μM) | ≥ 350% | – | – | Cc1cc(OCC2(C)COC2)nc(NC(=O)c2cnc3ccc(-c4ccccc4C(F)(F)F)nn23)n1 [Compound 277] | – |
| B (EC1.5 1-25 μM) | < 350% | – | – | O=C(Nc1cnc2ccc(-c3ccccc3Cl)nn12)c1ccncn1 [Compound 289] | – |
| – | – | – | – | Cc1cc(-c2ccccc2C(F)(F)F)nn2c(C(=O)Nc3ccccn3)cnc12 [Compound 194] | TAMRA EC1.5 (μM) [3]: A (EC1.5<1 μM); Emax [4]: ≥ 350% |
| A (EC1.5<1 μM) | ≥ 350% | – | – | Cc1cc(C(=O)Nc2cnn3ccc(-c4ccccc4OC(F)(F)F)nc23)nc(C)n1 [Compound 727] | – |
| – | – | – | – | Cn1nccc1NC(=O)c1cnc2ccc(-c3ccccc3C(F)(F)F)nn12 [Compound 115] | TAMRA EC1.5 (μM) [3]: C (EC1.5>25 μM); Emax [4]: < 350% |
| – | – | – | – | O=C(Nc1cnccn1)c1cnc2ccc(-c3cccc(F)c3Cl)nn12 [Compound 184] | TAMRA EC1.5 (μM) [3]: B (EC1.5 1-25 μM); Emax [4]: < 350% |
| – | – | A (EC1.5<1 μM) | ≥ 350% | COc1nccc(NC(=O)c2cnn3ccc(-c4ccccc4C(F)(F)F)nc23)n1 [Compound 519] | – |
| A (EC1.5<1 μM) | < 350% | – | – | COc1ccc(NC(=O)c2c(C)nc3ccc(-c4cccc(C)c4)nn23)nn1 [Compound 759] | – |
| B (EC1.5 1-25 μM) | < 350% | – | – | O=C(Nc1cnc2ccc(-c3ccccc3F)nn12)c1cnccn1 [Compound 280] | – |
| – | – | A (EC1.5<1 μM) | ≥ 350% | COc1nccc(NC(=O)c2c(C)nc3c(C)cc(-c4ccccc4C(F)(F)F)nn23)n1 [Compound 543] | – |
| B (EC1.5 1-25 μM) | ≥ 350% | – | – | Cc1cnc(C(=O)Nc2cnc3ccc(-c4ccccc4C#N)nn23)s1 [Compound 336] | – |
| A (EC1.5<1 μM) | ≥ 350% | – | – | Cc1cc(C)nc(NC(=O)c2c(C)nn3ccc(-c4ccccc4C(F)(F)F)nc23)n1 [Compound 777] | – |
| – | – | A (EC1.5<1 μM) | ≥ 350% | Cc1cc(-c2ccccc2C(F)(F)F)nn2c(NC(=O)c3cnccn3)cnc12 [Compound 408] | – |
| – | – | A (EC1.5<1 μM) | ≥ 350% | Cc1cc2ncc(NC(=O)c3ncccn3)n2nc1-c1ccccc1C(F)(F)F [Compound 444] | – |
| A (EC1.5<1 μM) | ≥ 350% | – | – | Cc1cc(C)nc(NC(=O)c2cnc3ccc(-c4ccccc4Cl)nn23)c1 [Compound 245] | – |
| – | – | – | – | O=C(Nc1cnc2ccc(-c3ccccc3C(F)(F)F)nn12)c1ccccn1 [Compound 85] | TAMRA EC1.5 (μM) [3]: A (EC1.5<1 μM); Emax [4]: ≥ 350% |
| C (EC1.5>25 μM) | – | – | – | O=C(Nc1ncccn1)c1c(O)nc2ccc(-c3ccccc3C(F)(F)F)nn12 [Compound 342] | – |
| – | – | – | – | O=C(Nc1ccnc(N2CCC2)c1)c1cnc2ccc(-c3ccc(F)c(F)c3F)nn12 [Compound 132] | TAMRA EC1.5 (μM) [3]: C (EC1.5>25 μM); Emax [4]: < 350% |
| C (EC1.5>25 μM) | < 350% | – | – | Cc1cccc(NC(=O)c2c(O)nc3ccc(-c4ccccc4C(F)(F)F)nn23)n1 [Compound 343] | – |
| B (EC1.5 1-25 μM) | < 350% | – | – | Cc1cc(NC(=O)c2cnc3ccc(-c4cccc(OCC(O)CO)c4)nn23)ccn1 (stereo not drawn) [Compound 374] | – |
| – | – | A (EC1.5<1 μM) | ≥ 350% | Cc1cc2ncc(NC(=O)c3cscn3)n2nc1-c1ccccc1C(F)(F)F [Compound 434] | – |
| A (EC1.5<1 μM) | ≥ 350% | – | – | COc1ccc(NC(=O)c2c(C)nc3ccc(-c4ccccc4Br)nn23)nn1 [Compound 765] | – |
| – | – | A (EC1.5<1 μM) | ≥ 350% | Cc1cc2ncc(NC(=O)c3nccs3)n2nc1-c1ccccc1C(F)(F)F [Compound 446] | – |
| A (EC1.5<1 μM) | ≥ 350% | – | – | Cc1cc(-c2ccccc2C(F)(F)F)nn2c(C(=O)Nc3cnccn3)cnc12 [Compound 208] | – |
| A (EC1.5<1 μM) | ≥ 350% | – | – | CC(C)c1nccc(C(=O)Nc2cnc3ccc(-c4ccccc4C(F)(F)F)nn23)n1 [Compound 274] | – |

| TAMRA EC1.5 (μM) [1] | Emax [2] | TAMRA EC1.5 [5] | Emax [6] | SMILES | other results |
| --- | --- | --- | --- | --- | --- |
| – | – | A (EC1.5<1 μM) | ≥ 350% | Cc1cc2ncc(NC(=O)c3ccccn3)n2nc1-c1ccccc1C(F)(F)F [Compound 441, N-(7-methyl-6-(2-(trifluoromethyl)phenyl)imidazo[1,2-b]pyridazin-3-yl)picolinamide] | – |
| A (EC1.5<1 μM) | ≥ 350% | – | – | Cc1ccc(NC(=O)c2cnn3ccc(-c4ccccc4C(F)(F)F)nc23)cn1 [Compound 631] | – |
| – | – | – | – | O=C(Nc1cccnn1)c1cnc2ccc(-c3ccccc3C(F)(F)F)nn12 [Compound 79] | TAMRA EC1.5 (μM) [3]: B (EC1.5 1-25 μM); Emax [4]: ≥ 350% |
| – | – | A (EC1.5<1 μM) | ≥ 350% | Cc1cc(-c2ccccc2C(F)(F)F)nn2c(C(=O)Nc3ccnc(OC4CCOCC4)n3)cnc12 [Compound 587] | – |
| A (EC1.5<1 μM) | ≥ 350% | – | – | Cc1nc2ccc(-c3ccccc3C(F)(F)F)nn2c1C(=O)Nc1cnncn1 [Compound 667] | – |
| A (EC1.5<1 μM) | ≥ 350% | – | – | Cc1cc(NC(=O)c2c(C)nn3ccc(-c4ccccc4C(F)(F)F)nc23)cc(C)n1 [Compound 648] | – |
| – | – | A (EC1.5<1 μM) | ≥ 350% | O=C(Nc1cccc(N2CC3(COC3)C2)n1)c1cnc2ccc(-c3ccccc3C(F)(F)F)nn12 [Compound 537] | – |
| – | – | A (EC1.5<1 μM) | ≥ 350% | O=C(Nc1cccc(OC[C@@H](O)CO)n1)c1cnc2ccc(-c3ccccc3C(F)(F)F)nn12 [Compound 554] | – |
| A (EC1.5<1 μM) | ≥ 350% | – | – | O=C(Nc1cnn2ccc(-c3ccccc3C(F)(F)F)nc12)c1ncccc1F [Compound 747] | – |
| – | – | B (EC1.5 1-25 μM) | < 350% | Cc1cc(C)nc(NC(=O)c2cnc3ccc(N4CCCC(C(F)(F)F)C4)nn23)c1 (stereo not drawn) [Compound 579] | – |
| A (EC1.5<1 μM) | < 350% | – | – | Cc1nc(C(=O)Nc2cnc3ccc(-c4ccccc4F)nn23)c(C)s1 [Compound 300] | – |
| B (EC1.5 1-25 μM) | < 350% | – | – | Cc1cnc(C(=O)Nc2cnc3ccc(-c4ccccc4F)nn23)s1 [Compound 304] | – |
| B (EC1.5 1-25 μM) | < 350% | – | – | N#Cc1ccccc1-c1ccc2ncc(NC(=O)c3ccncn3)n2n1 [Compound 330] | – |
| B (EC1.5 1-25 μM) | ≥ 350% | – | – | COc1ccc(NC(=O)c2c(C)nc3ccc(-c4ccccc4C)nn23)nn1 [Compound 720] | – |
| A (EC1.5<1 μM) | ≥ 350% | – | – | CCOc1nccc(NC(=O)c2cnn3ccc(-c4ccccc4C(F)(F)F)nc23)n1 [Compound 807] | – |
| A (EC1.5<1 μM) | ≥ 350% | – | – | Cc1ccnc(NC(=O)c2c(C)nc3ccc(-c4ccccc4OC[C@H](O)CO)nn23)c1 [Compound 817] | – |
| A (EC1.5<1 μM) | ≥ 350% | – | – | Cc1cc(C)nc(C(=O)Nc2cnn3ccc(-c4ccccc4C(F)(F)F)nc23)n1 [Compound 801] | – |
| – | – | A (EC1.5<1 μM) | ≥ 350% | Cc1nn2ccc(-c3ccccc3C(F)(F)F)nc2c1C(=O)Nc1ccccn1 [Compound 548] | – |
| – | – | A (EC1.5<1 μM) | ≥ 350% | O=C(Nc1cnccn1)c1cnn2ccc(-c3ccccc3OC(F)(F)F)nc12 [Compound 532] | – |
| A (EC1.5<1 μM) | ≥ 350% | – | – | Cc1c(-c2ccccc2Cl)nn2c(C(=O)Nc3cccc(N4CCOCC4)n3)cnc2c1C [Compound 229] | – |
| – | – | A (EC1.5<1 μM) | ≥ 350% | Cc1cc(NC(=O)c2cnc3c(C)cc(-c4ccccc4C(F)(F)F)nn23)ccn1 [Compound 540] | – |
| – | – | – | – | O=C(Nc1cccc(N2CCOCC2)n1)c1cnc2ccc(-c3ccccc3C(F)F)nn12 [Compound 36] | TAMRA EC1.5 (μM) [3]: A (EC1.5<1 μM); Emax [4]: ≥ 350% |
| – | – | A (EC1.5<1 μM) | ≥ 350% | Cc1nc2ccc(-c3ccccc3C(F)(F)F)nn2c1C(=O)Nc1cccnn1 [Compound 462, 2-methyl-N-(pyridazin-3-yl)-6-(2-(trifluoromethyl)phenyl)imidazo[1,2-b]pyridazine-3-carboxamide] | – |
| C (EC1.5>25 μM) | < 350% | – | – | O=C(Nc1cnn2ccc(-c3ccccc3C(F)(F)F)nc12)c1cccnc1 [Compound 250] | – |

| SMILES | TAMRA EC1.5 (μM) [1] | Emax [2] | TAMRA EC1.5 [5] | Emax [6] | other results |
| --- | --- | --- | --- | --- | --- |
| O=C(Nc1ccncc1)c1cnn2ccc(-c3ccccc3C(F)(F)F)nc12 [Compound 240, N-(pyridin-4-yl)-5-(2-(trifluoromethyl)phenyl)pyrazolo[1,5-a]pyrimidine-3-carboxamide] | A (EC1.5<1 μM) | ≥ 350% | – | – | – |
